Reference: US20240360107A1, “AN EIF4A INHIBITOR WITH A NOVEL MECHANISM OF ACTION” (ARIZONA BOARD OF REGENTS ON BEHALF OF THE UNIVERSITY OF …, priority 2021, published 2024)
“Also recorded” adds a separate entry of the source.

Key:
[1] = target: T1, eIF4A (Homo sapiens, UniProt P60842); experiment: RNA-stimulated malachite green ATPase assay; format: biochemical; set-up: 6xHis with TEV protease site (N, cleaved yes); made in house; host or cells: E. coli BL21-CodonPlus; details: for potency in the eIF4A ATPase assay (in words): comparison within the series
Experimental: Human eIF4A protein was produced recombinantly and a greater than 100,000-compound screen for inhibitors was completed using a malachite green ATPase assay (FIG. 11A). […] A stable mixture of yeast RNAs was added in an effort to improve this system and create a more biologically relevant eIF4A assay. eIF4A ATPase activity was accelerated without a statistically significant increase in the background signal in the presence of this RNA (FIG. 11B), and the new conditions gave excellent statistical parameters in a 384-well plate format (FIG. 11C).
ATPase assay. Recombinant WT or mutant eIF4A was added to a clear bottom 384 well plate (Greiner) in ATPase buffer (20 mM Tris pH 7.4, 80 mM KCl, 2.5 mM MgCl2, 1 mM DTT, 1% glycerol). Compounds were added and the plate was incubated at 37° C. for 20 min. ATP/RNA solution was added to afford a 20 μL per well reaction volume with 750 nM eIF4A, 250 μM ATP, and 0.25 mg/mL Yeast RNA (Sigma) for the initial screen and dose responses, and varying concentrations of ATP and RNA for the kinetic assays. The plate was incubated for 4 h at 37° C. for the initial screen and dose responses, and at seven time points (1 hour-7 hours) for kinetic assays. 0.04% v/v (final concentration) Tween-20 was added to a Malachite Green solution, and the Malachite Green (40 μL per well) was added. The solution was incubated for 5 minutes at room temperature and Absorbance at 660 nm was read on a SpectraMax iD5 plate reader (Molecular Devices).
Target sequence in this assay (P60842 whole entry): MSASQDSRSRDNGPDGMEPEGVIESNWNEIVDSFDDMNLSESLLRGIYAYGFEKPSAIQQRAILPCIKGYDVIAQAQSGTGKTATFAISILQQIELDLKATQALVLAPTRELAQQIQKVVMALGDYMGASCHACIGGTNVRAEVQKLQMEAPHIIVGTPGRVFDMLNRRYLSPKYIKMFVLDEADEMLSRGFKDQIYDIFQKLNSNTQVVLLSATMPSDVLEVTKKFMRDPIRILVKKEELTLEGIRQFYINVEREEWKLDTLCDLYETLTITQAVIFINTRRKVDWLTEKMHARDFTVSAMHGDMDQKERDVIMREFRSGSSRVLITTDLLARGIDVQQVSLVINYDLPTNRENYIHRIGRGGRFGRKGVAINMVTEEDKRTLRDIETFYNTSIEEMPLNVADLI

[2] = tested on: BJAB Burkitt lymphoma cells; experiment: CellTiter-Glo Luminescent Cell Viability assay; format: cell-based; details: 72 h; for effect on BJAB cell viability: top concentration 10 uM
Experimental: Compounds 1 and compound 28 were evaluated in a CellTiter-Glo (CTG) Luminescence cell viability assay in BJAB Burkitt lymphoma cells that are known to be sensitive to eIF4A inhibition. This assay quantitates the number of living, metabolically active cells by measuring their ATP levels.
Cell viability assay. BJAB lymphoma cells were plated in quadruplicate at 5,000 cells/well in serial dilutions of drug ranging two logs with the top concentration of compounds tested at 10 uM. Viability was measured after 72 h using Cell Titer Glo (Promega G7573) following the manufacturer's protocol. Luminescence was detected on the BioTek HT Synergy plate reader and values were normalized to vehicle-treated (DMSO) wells. Silvestrol was included as a positive control (not shown).

[3] = tested on: cap-dependent translation of firefly luciferase; experiment: in vitro translation of bicistronic luciferase reporter in rabbit reticulocyte lysate, firefly luciferase; format: biochemical; details: Cycloheximide 600 μM, Silvestrol 100 nM
Excerpt: (§1) A bicistronic luciferase reporter ([…]) (FIG. 7B, top) was programmed into rabbit reticulocyte lysates, cellular extracts capable of performing both cap-dependent and Hepatitis C virus (HCV) internal ribosomal entry site (IRES)-mediated translation. eIF4A is the enzymatic driver of cap-dependent translation and is not involved in translation through HCV IRES. Compounds that inhibit eIF4A should inhibit cap-dependent translation of firefly (FF) luciferase while leaving IRES-mediated translation of Renilla (Ren) luciferase relatively unaffected. The inhibitory activities of cycloheximide, silvestrol, and 28 were assessed in this in vitro translation assay (FIG. 7B, bottom). […] The ability of compound 28 to preferentially target cap-dependent translation in a similar manner as silvestrol provides promising evidence that 28 inhibits eIF4A and not other proteins in the general translational machinery.
(§2) The dual-luciferase reporter plasmid pSP/(CAG)33/FF/HCV/Ren-pA51 was linearized with BamHI and subsequently in vitro transcribed using the Promega mMessage mMachine SP6 transcription kit, according to manufacturer's specifications. RNA was precipitated with LiCI and resuspended in H2O for use in in vitro translation experiments. Rabbit reticulocyte lysate (RRL) (nuclease-treated, Promega) was used to assess inhibitory effects of 28 on translation of the dual-reporter. Briefly, a reaction consisting of 50% RRL, 30 ng/μL reporter RNA, 10 μM Amino Acid Mixture Minus Methionine, 10 μM Amino Acid Mixture Minus Leucine, […], 1 U/μL RNAseOut (Thermo), and drug (final DMSO concentration 1%) were incubated at 30° C. for 90 minutes. The reaction was quenched with 50 μL 1× Passive Lysis Buffer (Promega), 10 μL of the mix was transferred to a 96-well white plate (Cellstar), and the Dual-Reporter Luciferase Assay System (Promega) was used to generate luminescence according to the manufacturer's instructions. Luminescence was detected using a plate reader (BioTek HT Synergy).

[4] = tested on: HCV IRES-dependent translation of Renilla luciferase; experiment: in vitro translation of bicistronic luciferase reporter in rabbit reticulocyte lysate, Renilla luciferase; format: biochemical; details: Cycloheximide 600 μM, Silvestrol 100 nM
Excerpt: as §1, §2

[5] = target: T1, eIF4A; experiment: Cellular Thermal Shift Assay (CETSA) in A549 cells; format: cell-based; set-up: endogenous in cells; host or cells: A549 cells; details: 90 min, 55° C., silvestrol 100 nM
Experimental: In CETSA, thermal stability of a protein is assessed by heating cells and then separating insoluble, aggregated, or denatured proteins from soluble proteins through supernatant/pellet fractionation. Levels of the protein of interest (eIF4A) remaining in the soluble fraction are then measured by western blot. The principle of CETSA is similar to differential scanning fluorimetry (DSF), in that thermal stability and solubility of a protein increases upon binding a ligand.
Cellular Thermal Shift Assay (CETSA). A549 cells were seeded into wells in 6-well plates and on the following day were exposed to 28 or silvestrol (100 nM) for 90 min. Cells were harvested, resuspended in 50 μL DMEM, and dispensed into thin-walled PCR tubes. Cells were subjected to 3 min of heat at 55° C. in a thermocycler (miniPCR). After heating, cells were left to cool for 3 min and then snap-frozen on dry ice. Cells were subjected to 3 rapid freeze thaws with 15 seconds of vortexing after each thaw. After the first thaw, 1 μL of a dissolved Pierce protease inhibitor tablet (ThermoFisher—A32963) was added to the cell lysate. Cell lysates were centrifuged at 20,000×g for 20 min. […] All immunoblot images were taken using the Azure 600 imaging system (Azure Biosystems) and analyzed using ImageJ 1.51s (NIH). […]
Target sequence in this assay (P60842 2-406): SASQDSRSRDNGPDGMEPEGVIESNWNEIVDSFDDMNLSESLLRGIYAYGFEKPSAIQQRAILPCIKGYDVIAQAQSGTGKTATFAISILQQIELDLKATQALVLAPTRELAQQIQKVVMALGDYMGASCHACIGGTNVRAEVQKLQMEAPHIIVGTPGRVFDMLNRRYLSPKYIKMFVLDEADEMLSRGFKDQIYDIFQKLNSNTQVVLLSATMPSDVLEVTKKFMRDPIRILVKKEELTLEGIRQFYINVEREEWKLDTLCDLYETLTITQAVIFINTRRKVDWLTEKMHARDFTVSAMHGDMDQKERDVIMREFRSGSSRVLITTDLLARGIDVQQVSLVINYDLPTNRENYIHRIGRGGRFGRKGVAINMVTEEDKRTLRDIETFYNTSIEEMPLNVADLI

Row | SMILES | potency in the eIF4A ATPase assay (in words) [1] | effect on BJAB cell viability [2] | further results
1 | CCCCc1ccc(-c2ccc(-c3cc(C(=O)O)c4ccc(Cl)cc4n3)o2)cc1 [Compound 9, 2-(5-(4-butylphenyl)furan-2-yl)-7-chloroquinoline-4-carboxylic acid] | moderate potency; also recorded: performing the best in the ATPase assay of any inhibitor produced | – | IC50 ([1]; 750 nM eIF4A, 250 μM ATP, 0.25 mg/mL Yeast RNA, 4 h at 37° C.): 21.7 ± 3.39 µM; EC50 ([2]; Homo sapiens, CellTiter-Glo, n=4): 4.29 ± 0.23 µM
2 | CCCCc1ccc(-c2ccc(-c3cc(C(=O)O)c4cc(N)ccc4n3)o2)cc1 [Compound 24, 6-amino-2-(5-(4-butylphenyl)furan-2-yl)quinoline-4-carboxylic acid] | lose potency in the ATPase assay; also recorded: major losses in potency | do not decrease BJAB cellular viability | –
3 | CCCCc1ccc(-c2ccc(-c3cc(C(=O)O)c4cc(NC(C)=O)ccc4n3)o2)cc1 [Compound 25, 6-acetamido-2-(5-(4-butylphenyl)furan-2-yl)quinoline-4-carboxylic acid] | lose potency in the ATPase assay; also recorded: major losses in potency | do not decrease BJAB cellular viability | –
4 | CCCCc1ccc(-c2ccc(-c3cc(C(=O)OCC)c4cc([N+](=O)[O-])ccc4n3)o2)cc1 [Compound 29, ethyl 2-(5-(4-butylphenyl)furan-2-yl)-6-nitroquinoline-4-carboxylate] | not potent in the ATPase assay; also recorded: lost all eIF4A potency | did not inhibit cellular viability | –
5 | Nc1ccc(-c2ccc(-c3cc(C(=O)O)c4cc([N+](=O)[O-])ccc4n3)o2)cc1 [Compound 46, 2-(5-(4-aminophenyl)furan-2-yl)-6-nitroquinoline-4-carboxylic acid] | low potency; also recorded: lose potency in the ATPase assay | do not inhibit BJAB cell viability | –
6 | Nc1cccc(-c2ccc(-c3cc(C(=O)O)c4cc([N+](=O)[O-])ccc4n3)o2)c1 [Compound 47, 2-(5-(3-aminophenyl)furan-2-yl)-6-nitroquinoline-4-carboxylic acid] | low potency; also recorded: lose potency in the ATPase assay | do not inhibit BJAB cell viability | –
7 | O=C(O)c1cc(-c2ccc(-c3ccc4c(c3)OCO4)o2)nc2ccc([N+](=O)[O-])cc12 [Compound 48, 2-(5-(benzo[d][1,3]dioxol-5-yl)furan-2-yl)-6-nitroquinoline-4-carboxylic acid] | lost all potency | – | –
8 | O=C(O)c1cc(-c2ccc(-c3cccc4ccccc34)o2)nc2ccc([N+](=O)[O-])cc12 [Compound 49, 2-(5-(naphthalen-1-yl)furan-2-yl)-6-nitroquinoline-4-carboxylic acid] | about four-fold less potent than compound 28 | – | –
9 | O=C(O)c1cc(-c2ccc(-c3ccc(-c4ccccc4)cc3)o2)nc2ccc([N+](=O)[O-])cc12 [Compound 50, 2-(5-([1,1′-biphenyl]-4-yl)furan-2-yl)-6-nitroquinoline-4-carboxylic acid] | less potent than compound 28; also recorded: more potent than meta-substituted 51 | – | –
10 | O=C(O)c1cc(-c2ccc(-c3cccc(-c4ccccc4)c3)o2)nc2ccc([N+](=O)[O-])cc12 [Compound 51, 2-(5-([1,1′-biphenyl]-3-yl)furan-2-yl)-6-nitroquinoline-4-carboxylic acid] | less potent than compound 28 | – | –
11 | C[C@@H]1C[C@@H]([C@H](O)CC2CC(=O)NC(=O)C2)C(=O)[C@@H](C)C1 [Cycloheximide, reference compound] | – | – | effect on cap-dependent translation (firefly luciferase) [3]: inhibits both cap-dependent and IRES-mediated translation; effect on HCV IRES-mediated translation (Renilla luciferase) [4]: inhibits both cap-dependent and IRES-mediated translation
12 | COC(=O)[C@H]1[C@@H](O)[C@@]2(O)c3c(OC)cc(O[C@@H]4O[C@@H]([C@H](O)CO)CO[C@H]4OC)cc3O[C@@]2(c2ccc(OC)cc2)[C@@H]1c1ccccc1 [silvestrol, reference compound] | – | – | thermal stability of eIF4A in cells (CETSA) [5]: increased thermal stability of eIF4A; effect on cap-dependent translation (firefly luciferase) [3]: inhibit cap-dependent translation of firefly luciferase; effect on HCV IRES-mediated translation (Renilla luciferase) [4]: only show a modest effect on HCV IRES-dependent translation of Renilla luciferase
